Assay results from PubChem BioAssay (NCI).
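Following 48 hours of exposure in 96-well plates, responses at five concentrations were used to interpolate endpoints linearly. Abbreviation: GI50, concentration required for 50% inhibition of growth. At the TGI there is no net growth.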

What was measured:
Test in all cases: DTP human tumour cell line panel, 48 h
[1] = system: A498 renal
[2] = system: COLO 205 colon
[3] = system: DU-145 prostate
[4] = system: EKVX NSCLC
[5] = system: MDA-MB-231 breast
[6] = system: NCI-H226 lung
[7] = system: OVCAR-3 ovarian
[8] = system: SN12C renal
[9] = system: SNB-75 CNS
[10] = system: SW-620 colon

Compound | GI50 [1] | TGI [1] | GI50 [2] | TGI [2] | GI50 [3] | TGI [3] | GI50 [4] | TGI [4] | GI50 [5] | TGI [5] | GI50 [6] | TGI [6] | GI50 [7] | TGI [7] | GI50 [8] | TGI [8] | GI50 [9] | TGI [9] | GI50 [10] | TGI [10]
COC(=O)C1=C2CO[C@@H]3C[C@H]4C(C)(C)CCC[C@]4(C)C(=CC1)[C@]23C | 67.5 µM | > 100 µM | 28.2 µM | 71 µM | 44 µM | > 100 µM | 45.5 µM | > 100 µM | 83 µM | > 100 µM | 56.5 µM | > 100 µM | 11.1 µM | 32.2 µM | 35.1 µM | > 100 µM | 20400 nM | 50.9 µM | 39.5 µM | > 100 µM
Cc1cc(S(=O)(=O)Nc2nc3ccsc3c(=O)n2Cc2ccccc2)c(S)cc1Cl | 14.2 µM | 49.3 µM | 37.5 µM | > 100 µM | 34.6 µM | > 100 µM | 21.8 µM | 77.3 µM | 30.3 µM | 72.5 µM | 34.5 µM | 93.6 µM | 24.3 µM | 53 µM | 31.1 µM | 58.8 µM | > 100000 nM | > 100 µM | 34.1 µM | > 100 µM
Cc1cc(Cl)ccc1Nc1nc(C(F)(F)F)ccc1C(=O)N/N=C/c1ccc(N(C)C)cc1 | 2.59 µM | > 100 µM | 2.59 µM | > 100 µM | 0.915 µM | 8.86 µM | 0.746 µM | > 100 µM | 1.37 µM | > 100 µM | 2.29 µM | > 100 µM | 0.563 µM | > 100 µM | 3.99 µM | > 100 µM | 1830 nM | > 100 µM | 2.04 µM | > 100 µM
CCN1CCN(c2nc(C)cc(N(CCCNc3ccnc4cc(Cl)ccc34)Cc3ccco3)n2)CC1 | 6.53 µM | 49.1 µM | 1.85 µM | 3.98 µM | 5.89 µM | 19.7 µM | 7.67 µM | 25.3 µM | 3.18 µM | 12.4 µM | 15.3 µM | 29.2 µM | 4.29 µM | 20.3 µM | 5.55 µM | 19.5 µM | 1700 nM | 7.55 µM | 3.12 µM | 13 µM
O=C(O)CCc1nc(-c2ccccc2)c(-c2ccccc2)o1 |  | > 100 µM |  | > 100 µM |  | > 100 µM |  | > 100 µM |  | > 100 µM |  | > 100 µM |  | > 100 µM |  | > 100 µM |  | > 100 µM |  | > 100 µM
